Measured values taken from patent publication US10870633B2, “Types of C-3 substituted kynurenic acid derivatives with improved neuroprotective activity” (SZEGEDI TUDOMÁNYEGYETEM, priority 2016, dated 2020).
Where “and” joins values, the source holds several entries; their conditions need not be identical. Equal values may be shown once. Read-outs that look alike come from different tables or passages of the source.

Assays:
[1] = system: fEPSP from the stratum radiatum layer of the CA1 region of the hippocampus; assay: In vitro electrophysiology on hippocampal brain slices (fEPSP amplitude, CA1); type: cell-based, Wistar rats; conditions: for fEPSP amplitude, minutes 31-40 of recording (washing in phase): normalized to the averages of the amplitudes of the control phase, last 10 minutes of washing in; for fEPSP amplitude, minutes 61-70 of recording (washing off phase): after 200 μM, normalized to the control phase, last 10 minutes of recording
Protocol: In the course of our experiments young adult (200-250 g) male Wistar rats were used. Until the start of the experiments the animals were housed in the animal house of the Department of Physiology, Anatomy and Neuroscience, University of Szeged, in standard plastic cages, where 12-12 hours light-dark cycles, standard 23° C. temperature and free access to water and food were provided. In the course of the experiments we aimed at using a minimum number of animals and to cause them the smallest degree of suffering. In each case the principles relating to the care of laboratory animals, the animal care related protocol approved by the Hungarian Health Committee (1998), and the Decree of the Council of the European Communities of 22 Sep. 2010 (2010/63/EU) were followed.
The animals received Isoflurane (3% and then 1%) inhalation anaesthesia for the electrophysiological measurements. After ensuring that the animals were in a deep sleep phase (the paw withdrawal reflex occurring for squeezing stopped), they were decapitated. By incising the head skin and the underlying connective tissue the skull was exposed. Then incisions were made in longitudinal direction along the sagittal suture as well as in transversal direction along the suture coronalis, furthermore caudally therefrom in the right and left direction. After the opening the bregma coronalis incisions were made behind the bulbi and in front of the cerebellum, allowing the removal of the approx. 3 mm thick brain region, containing the hippocampus. From the middle part of the hippocampus 350 μm thick slices were prepared with vibratome (Leica VT1200S, Germany). The cutting was performed in artificial cerebrospinal fluid (aCSF), whose temperature was 4° C. maximum. The aCSF was composed of: 130 mM NaCl, 3.5 mM KCl, 1 mM NaH2PO4, 24 mM NaHCO3, 1 mM […], 3 mM MgSO4 and 10 mM D-glucose (Sigma, Germany). The cut slices were placed in recording aCSF of room temperature, whose composition differed only in the 3 mM CaCl2) and 1.5 MgSO4 concentrations from the one used for cutting. Both the cutting and the recording aCSF were oxygenated with carbogen (95% O2, 5% CO2), for providing the suitable and uninterrupted O2 supply. After the preparation of all the hippocampal slices the recording aCSF in the slice holder container was warmed to 34-35° C., and the brain slices were left to recover for one hour under these conditions in order to assure the proceeding of the regeneration processes started against the damages caused in the course of the slice-preparation. […]
For the electrophysiological recordings a concentric stainless steel electrode (Neuron elektród kft; Budapest, Hungary) was placed in the stratum radiatum layer between the CA3-CA1 regions of the hippocampus, wherein the stimulation was performed with constant current intensity, with 0.2 ms pulses of 0.033 Hz frequency. By positioning the recording electrodes of 2-3 MΩ filled with aCSF in orthodrom position from the previously mentioned region, stimulating postsynaptic field potentials (fEPSP) were conducted from the stratum radiatum layer of the CA1 region, and their amplitudes were monitored.
Submaximal stimulation was used, i.e. about 70-80% of the intensity of the smallest pulse causing the fEPSP of maximum amplitude was used. […] The results were evaluated with the OriginPro 8 (OriginLab Corporation, Northampton, Mass., USA) software. […]

[2] = Solubility compared to previously synthesized analogues (statement); type: physicochemical
[3] = Passage on the culture model of the blood-brain barrier (bidirectional permeability); type: in vitro ADME, rat; conditions: rat, 10 μM; for Papp A→B at 60 min, 10 μM / Papp A→B at 30 min, 10 μM: AB (from blood to brain) direction; for Papp B→A at 60 min, 10 μM / Papp B→A at 30 min, 10 μM: BA (from brain to blood) direction; for efflux ratio at 60 min, 10 μM: read-out: Efflux ratio: Papp BA/PappAB
From the text: (§1) The blood-brain barrier model prepared by the co-cultivation of three cell types (primary rat brain endothelial cells, primary glia and brain microvascular pericyte cells) was used for the permeability experiments (Nakagawa S, Deli M A, Kawaguchi H, Shimizudani T, Shimono T, Kittel A, Tanaka K, Niwa M. Anew blood-brain barrier model using primary rat brain endothelial cells, pericytes and astrocytes. Neurochem Int. 2009 March-April; 54(3-4):253-63. doi: 10.1016/j.neuint.2008.12.002.; Veszelka S, Tóth A E, Walter F R, Datki Z, Mózes E, Fülöp L, Bozsó Z, Hellinger E, Vastag M, Orsolits B, Környei Z, Penke B, Deli M A. Docosahexaenoic acid reduces amyloid-β induced toxicity in cells of the neurovascular unit. J Alzheimers Dis. 2013; 36(3):487-501.).
(§2) Passage of the compounds of the invention was tested in two directions AB (“from blood to brain”) and BA (“from brain to blood”), in 10 μM concentration.
(§3) The permeability experiment took 60 minutes, with sampling at 30 and 60 minutes from the acceptor compartment.
(§4) The concentrations of the active substances passed through the endothelial cell layer were determined with mass spectrometry. By using the measured concentrations and the known data (volume, starting concentration) the clearance (μl) values, or from the clearance and volume data, by taking the surface and the time into consideration, the so-called permeability coefficients (papp, apparent permeability coefficient; measurement unit 10^−6 cm/s) were calculated, which provide the permeation rates of the compounds.

[4] = system: blood-brain barrier model (co-cultivation of primary rat brain endothelial cells, primary glia and brain microvascular pericyte cells); assay: as above; type: in vitro ADME; conditions: for Papp A-B 30′ / Papp A-B 60′ / Papp B-A 30′ / Papp B-A 60′ / Passage through the blood-brain barrier compared to the 24/1 and 24/2 comparative compounds / Efflux ratio: Papp BA/PappAB: 10 μM; for Papp A-B 30′ / Papp A-B 60′: AB (from blood to brain) direction; for Papp A-B 30′ / Papp B-A 30′: sampling at 30 minutes; for Papp A-B 30′ / Papp A-B 60′ / Papp B-A 30′ / Papp B-A 60′: single replicates; for Papp A-B 60′ / Papp B-A 60′: sampling at 60 minutes; for Papp B-A 30′ / Papp B-A 60′: BA (from brain to blood) direction; for Passage through the blood-brain barrier compared to the 24/1 and 24/2 comparative compounds: FIG. 2; for Permeability grade in words: blood-brain barrier model
From the text: as §1, §2, §3, §4

[5] = average, n=6, read-out: Papp A-B Average
[6] = sampling at 60 minutes, single replicates, read-out: Papp A-B 60′
[7] = average, n=6, read-out: Papp B-A Average
[8] = sampling at 60 minutes, single replicates, read-out: Papp B-A 60′

Papp A→B at 60 min, 10 μM [3, 5]	Papp A→B at 30 min, 10 μM ([3]; single replicates)	Papp A→B at 60 min, 10 μM [3, 6]	Papp B→A at 60 min, 10 μM [3, 7]	Papp B→A at 30 min, 10 μM ([3]; single replicates)	Papp B→A at 60 min, 10 μM [3, 8]	efflux ratio at 60 min, 10 μM [3]	Papp A-B 30′ [4]	Papp A-B 60′ [4]	Papp B-A 30′ [4]	Papp B-A 60′ [4]	Passage through the blood-brain barrier compared to the 24/1 and 24/2 comparative compounds [4]	Structure (SMILES)	other results
18.6 ×10⁻⁶ cm/s	16.4 ×10⁻⁶ cm/s	16.9 ×10⁻⁶ cm/s	25 ×10⁻⁶ cm/s	22.3 ×10⁻⁶ cm/s	24.9 ×10⁻⁶ cm/s	~1	20.1 10^−6 cm/s and 17.9 10^−6 cm/s	21.5 10^−6 cm/s and 18.8 10^−6 cm/s	24.3 10^−6 cm/s and 25.1 10^−6 cm/s	26.7 10^−6 cm/s and 26.6 10^−6 cm/s	triple	O=C(NCCN1CCCC1)c1nc2ccccc2c(O)c1CN1CCOCC1 [Example 20, 4-hydroxy-3-(morpholinomethyl)-N-(2-(pyrrolidin-1-yl)ethyl)quinoline-2-carboxamide]	fEPSP amplitude, minutes 31-40 of recording (washing in phase) ([1]; 200 μM): 58.14±10.16%; fEPSP amplitude, minutes 61-70 of recording (washing off phase) [1]: 107.14±17.99%; Solubility compared to previously synthesized analogues or other analogues with similar effect [2]: better solubility
–	–	–	–	–	–	–	–	–	–	–	–	CCN(CC)Cc1c(C(=O)NCCN2CCCC2)nc2ccccc2c1O [Example 17, 3-((diethylamino)methyl)-4-hydroxy-N-(2-(pyrrolidin-1-yl)ethyl)quinoline-2-carboxamide]	fEPSP amplitude, minutes 31-40 of recording (washing in phase) ([1]; 200 μM): 124.66±10.43%; fEPSP amplitude, minutes 61-70 of recording (washing off phase) [1]: 110.73±7.63%
11 ×10⁻⁶ cm/s	7.4 ×10⁻⁶ cm/s	12.4 ×10⁻⁶ cm/s	5.4 ×10⁻⁶ cm/s	2.5 ×10⁻⁶ cm/s	7.6 ×10⁻⁶ cm/s	~0.5	–	–	–	–	doubled	Cl.O=C(O)c1nc2ccccc2c(O)c1CN1CCOCC1 [Example 5, 4-hydroxy-3-(morpholinomethyl)quinoline-2-carboxylic acid hydrochloride]	Papp A-B 30′ ([4]; hydrochloride): 8.9 10^−6 cm/s and 8.2 10^−6 cm/s; Papp A-B 60′ ([4]; hydrochloride): 15.4 10^−6 cm/s and 13.9 10^−6 cm/s; Papp B-A 30′ ([4]; hydrochloride): 4.0 10^−6 cm/s and 3.2 10^−6 cm/s; Papp B-A 60′ ([4]; hydrochloride): 7.8 10^−6 cm/s and 7.5 10^−6 cm/s; Permeability grade in words [4]: medium permeability
5.7 ×10⁻⁶ cm/s	5.4 ×10⁻⁶ cm/s	7.2 ×10⁻⁶ cm/s	8.8 ×10⁻⁶ cm/s	8.3 ×10⁻⁶ cm/s	12.2 ×10⁻⁶ cm/s	~1	4.5 10^−6 cm/s and 7.4 10^−6 cm/s	3.9 10^−6 cm/s and 5.8 10^−6 cm/s	8.1 10^−6 cm/s and 4.2 10^−6 cm/s	10.5 10^−6 cm/s and 9.2 10^−6 cm/s	–	Cl.O=C(NCCN1CCCC1)c1cc(O)c2ccccc2n1 [comparative 24/1, 4-hydroxy-N-(2-(pyrrolidin-1-yl)ethyl)quinoline-2-carboxamide, reference compound]	Efflux ratio: Papp BA/PappAB [4]: 1.5
6.7 ×10⁻⁶ cm/s	4.2 ×10⁻⁶ cm/s	6 ×10⁻⁶ cm/s	8.1 ×10⁻⁶ cm/s	7.6 ×10⁻⁶ cm/s	9.7 ×10⁻⁶ cm/s	~1	8.3 10^−6 cm/s and 6.4 10^−6 cm/s	8.4 10^−6 cm/s and 6.7 10^−6 cm/s	7.9 10^−6 cm/s and 7.2 10^−6 cm/s	7.9 10^−6 cm/s and 8.5 10^−6 cm/s	–	CN(C)CCNC(=O)c1cc(O)c2ccccc2n1.Cl [comparative 24/2, N-(2-(dimethylamino)ethyl)-4-hydroxyquinoline-2-carboxamide, reference compound]	Efflux ratio: Papp BA/PappAB [4]: 1.2
36.9 ×10⁻⁶ cm/s	32.7 ×10⁻⁶ cm/s	37.8 ×10⁻⁶ cm/s	22 ×10⁻⁶ cm/s	20.1 ×10⁻⁶ cm/s	21.7 ×10⁻⁶ cm/s	~0.5	37.2 10^−6 cm/s and 38.0 10^−6 cm/s	37.4 10^−6 cm/s and 38.6 10^−6 cm/s	21.8 10^−6 cm/s and 21.3 10^−6 cm/s	23.2 10^−6 cm/s and 23.8 10^−6 cm/s	six times higher	CN(C)CCNC(=O)c1nc2ccccc2c(O)c1CN1CCOCC1 [Example 16, N-(2-(dimethylamino)ethyl)-4-hydroxy-3-(morpholinomethyl)quinoline-2-carboxamide]	Permeability grade in words [4]: high permeability
–	–	–	–	–	–	–	–	–	–	–	–	O=C(O)c1cc(O)c2ccccc2n1 [kynurenic acid, 4-hydroxy-quinoline-2-carboxylic acid]	fEPSP amplitude decrease in the last 10 minutes of the washing in phase ([1]; 200 μM, preliminary experimental results): 53.86±6.09%
